Measured values as given in US20240132484A1, “BROAD SPECTRUM ANTIVIRAL COMPOUNDS TARGETING THE SKI COMPLEX” (priority 2020, published 2024).
Where two headings read alike, the source gives them in different places.

Legend:
[1] = test system: Influenza virus; test: organism not typed; format: cell-based, influenza A virus; conditions: for Flu titer (pfu/ml): plaque assay; for antiviral activity against IAV infection: screening; for 10 μM treatment, Average / 50 μM treatment Average: average of replicates
[2] = test system: cells (nuclei count)
[3] = test system: SARS2; format: cell-based, SARS-CoV-2
[4] = target: WDR61 (Homo sapiens, UniProt Q9GZS3); test: Surface Plasmon Resonance with pure WDR61 protein
[5] = 50 μM compound, replicate 1, DMSO (0.5%) control run per batch

## COc1cc(CNCCC2CCN(C)CC2)ccc1OCC(O)CN(C)C1CCCCC1 (stereo not drawn) [Compound 28236358, 1-[cyclohexyl(methyl)amino]-3-[2-methoxy-4-({[2-(1-methyl-4-piperidinyl)ethyl]amino}methyl)phenoxy]-2-propanol]
[1]; 1 μM compound, A549 cells
  Flu titer (pfu/ml): 70000 pfu/ml
[1]; 10 μM compound, A549 cells
  Flu titer (pfu/ml): 70000 pfu/ml
[1]; 50 μM compound, A549 cells
  Flu titer (pfu/ml): 39000 pfu/ml

## OC(COc1ccccc1CNCc1cn2c(n1)SCC2)CN1CCSCC1 (stereo not drawn) [Compound 32841411, 1-(2-{[(2,3-dihydroimidazo[2,1-b][1,3]thiazol-6-ylmethyl)amino]methyl}phenoxy)-3-(4-thiomorpholinyl)-2-propanol]
[1]; 1 μM compound, A549 cells
  Flu titer (pfu/ml): 170000 pfu/ml
[1]; 10 μM compound, A549 cells
  Flu titer (pfu/ml): 80000 pfu/ml
[1]; 50 μM compound, A549 cells
  Flu titer (pfu/ml): 31000 pfu/ml

## COc1ccc(OC)c(Cc2nnc(CCC(=O)NC3CC(C)(C)CC(C)(C)C3)o2)c1 [Compound 35434810, 3-[5-(2,5-dimethoxybenzyl)-1,3,4-oxadiazol-2-yl]-N-(3,3,5,5-tetramethylcyclohexyl)propanamide]
[1]; 1 μM compound, A549 cells
  Flu titer (pfu/ml): 80000 pfu/ml
[1]; 10 μM compound, A549 cells
  Flu titer (pfu/ml): 80000 pfu/ml
[1]; 50 μM compound, A549 cells
  Flu titer (pfu/ml): 130000 pfu/ml

## Cc1ccc(-c2cc3c(c(OCC4CCCCO4)c2)OCCN(C(=O)C2CC2)C3)s1 (stereo not drawn) [Compound 43261887, 4-(cyclopropylcarbonyl)-7-(5-methyl-2-thienyl)-9-(tetrahydro-2H-pyran-2-ylmethoxy)-2,3,4,5-tetrahydro-1,4-benzoxazepine]
[1]; 1 μM compound, A549 cells
  Flu titer (pfu/ml): 60000 pfu/ml
[1]; 10 μM compound, A549 cells
  Flu titer (pfu/ml): 170000 pfu/ml
[1]; 50 μM compound, A549 cells
  Flu titer (pfu/ml): 30000 pfu/ml

## COc1ccccc1Cn1cc(C(=O)NCCC2=CCCCC2)c(=O)c(C(=O)N(CCO)C(C)C)c1 [Compound 55345532, N′-[2-(1-cyclohexen-1-yl)ethyl]-N-(2-hydroxyethyl)-N-isopropyl-1-(2-methoxybenzyl)-4-oxo-1,4-dihydro-3,5-pyridinedicarboxamide]
[1]; 1 μM compound, A549 cells
  Flu titer (pfu/ml): 55000 pfu/ml
[1]; 10 μM compound, A549 cells
  Flu titer (pfu/ml): 70000 pfu/ml
[1]; 50 μM compound, A549 cells
  Flu titer (pfu/ml): 34000 pfu/ml

## OCCN(Cc1nc(Cc2cccc(C(F)(F)F)c2)no1)CC12CC3CC(CC(C3)C1)C2 [Compound 61121342, 2-[(1-adamantylmethyl)({3-[3-(trifluoromethyl)benzyl]-1,2,4-oxadiazol-5-yl}methyl)amino]ethanol]
[1]; 1 μM compound, A549 cells
  Flu titer (pfu/ml): 9000 pfu/ml
[1]; 10 μM compound, A549 cells
  Flu titer (pfu/ml): 130000 pfu/ml
[1]; 50 μM compound, A549 cells
  Flu titer (pfu/ml): 50000 pfu/ml

## COC(=O)C1CCN(CC(O)COc2cccc(CN(C)Cc3cc(C)no3)c2)CC1 (stereo not drawn) [Compound 62396835, methyl 1-{2-hydroxy-3-[3-({methyl[(3-methyl-5-isoxazolyl)methyl]amino}methyl)phenoxy]propyl}-4-piperidinecarboxylate]
[1]; 1 μM compound, A549 cells
  Flu titer (pfu/ml): 66000 pfu/ml
[1]; 10 μM compound, A549 cells
  Flu titer (pfu/ml): 71000 pfu/ml
[1]; 50 μM compound, A549 cells
  Flu titer (pfu/ml): 30000 pfu/ml

## O=C(CN1CC(c2ccccc2)CC1=O)NCc1nnc(SCC2CCCCC2)n1-c1ccc(F)cc1 (stereo not drawn) [Compound 68125364, N-{[5-[(cyclohexylmethyl)thio]-4-(4-fluorophenyl)-4H-1,2,4-triazol-3-yl]methyl}-2-(2-oxo-4-phenyl-1-pyrrolidinyl)acetamide]
[1]; 1 μM compound, A549 cells
  Flu titer (pfu/ml): 72000 pfu/ml
[1]; 10 μM compound, A549 cells
  Flu titer (pfu/ml): 62000 pfu/ml
[1]; 50 μM compound, A549 cells
  Flu titer (pfu/ml): 79000 pfu/ml

## CN(CC(O)COc1ccccc1CNCCN1CCCC1)C1CCCCC1 (stereo not drawn) [Compound 74597070, 1-[cyclohexyl(methyl)amino]-3-[2-({[2-(1-pyrrolidinyl)ethyl]amino}methyl)phenoxy]-2-propanol]
[1]; 1 μM compound, A549 cells
  Flu titer (pfu/ml): 70000 pfu/ml
[1]; 10 μM compound, A549 cells
  Flu titer (pfu/ml): 55000 pfu/ml
[1]; 50 μM compound, A549 cells
  Flu titer (pfu/ml): 24000 pfu/ml

## CCN1CCN(CC(O)COc2cccc(CN(C)Cc3cc(C)no3)c2)CC1 (stereo not drawn) [Compound 77921510, 1-(4-ethyl-1-piperazinyl)-3-[3-({methyl[(3-methyl-5-isoxazolyl)methyl]amino}methyl)phenoxy]-2-propanol]
[1]; 1 μM compound, A549 cells
  Flu titer (pfu/ml): 72000 pfu/ml
[1]; 10 μM compound, A549 cells
  Flu titer (pfu/ml): 90000 pfu/ml
[1]; 50 μM compound, A549 cells
  Flu titer (pfu/ml): 26000 pfu/ml

## O=C(CCCc1ccccc1)Nc1cccc(N2CCC(NCCCn3nnc4ccccc43)CC2)c1 [Compound 84256405, N-[3-(4-{[3-(1H-1,2,3-benzotriazol-1-yl)propyl]amino}-1-piperidinyl)phenyl]-4-phenylbutanamide]
[1]; 1 μM compound, A549 cells
  Flu titer (pfu/ml): 50000 pfu/ml
[1]; 10 μM compound, A549 cells
  Flu titer (pfu/ml): 140000 pfu/ml
[1]; 50 μM compound, A549 cells
  Flu titer (pfu/ml): 210000 pfu/ml

## CCN(CC)CCNCc1ccccc1OCC(O)CN1CCSCC1 (stereo not drawn) [Compound 86006211, 1-[2-({[2-(diethylamino)ethyl]amino}methyl)phenoxy]-3-(4-thiomorpholinyl)-2-propanol]
[1]; 1 μM compound, A549 cells
  Flu titer (pfu/ml): 70000 pfu/ml
[1]; 10 μM compound, A549 cells
  Flu titer (pfu/ml): 60000 pfu/ml
[1]; 50 μM compound, A549 cells
  Flu titer (pfu/ml): 12000 pfu/ml

## COc1ccc(CNCCc2ccccc2F)c(OCC(O)CN2CCN(C)CC2)c1 (stereo not drawn) [Compound 96509034, 1-[2-({[2-(2-fluorophenyl)ethyl]amino}methyl)-5-methoxyphenoxy]-3-(4-methyl-1-piperazinyl)-2-propanol]
[1]; 1 μM compound, A549 cells
  Flu titer (pfu/ml): 10000 pfu/ml
[1]; 10 μM compound, A549 cells
  Flu titer (pfu/ml): 4000 pfu/ml
[1]; 50 μM compound, A549 cells
  Flu titer (pfu/ml): 5000 pfu/ml

## CN1CCN(CC(O)COc2c(CNCCc3ccccc3F)cccc2C2CCCCC2)CC1 (stereo not drawn) [SILCS4]
[2]; 1 μM, toxicity data, 100=DMSO control
  Relative cell count to DMSO controls, Average 1 μM: 116.22
[2]; 5 μM, toxicity data, 100=DMSO control
  Relative cell count to DMSO controls, Average 5 μM: 123.91
[2]; 10 μM, toxicity data, 100=DMSO control
  Relative cell count to DMSO controls, Average 10 μM: 122.04
[2]; 25 μM, toxicity data, 100=DMSO control
  Relative cell count to DMSO controls, Average 25 μM: 3.91
[2]; 50 μM, toxicity data, 100=DMSO control
  Relative cell count to DMSO controls, Average 50 μM: 2.18
[2]; Average of Exp 1-3, 1 uM
  Toxicity Data, Average, Mean (relative to DMSO control): 116.22%
[2]; Average of Exp 1-3, 5 uM
  Toxicity Data, Average, Mean (relative to DMSO control): 123.91%
[2]; Average of Exp 1-3, 10 uM
  Toxicity Data, Average, Mean (relative to DMSO control): 122.04%
[2]; Average of Exp 1-3, 25 uM
  Toxicity Data, Average, Mean (relative to DMSO control): 3.91%
[2]; Average of Exp 1-3, 50 uM
  Toxicity Data, Average, Mean (relative to DMSO control): 2.18%
[2]; average value over the 5 tested concentrations (1 to 50 uM)
  Relative cell count to DMSO controls, Average (for correlation analysis): 73.65
[3]; SARS2, 1 μM
  Percentage Inhibition Average 1 μM: 17.51%
[3]; SARS2, 1 μM, 100=DMSO control
  Screening data (Relative infection to DMSO controls) Average 1 μM: 82.49
[3]; SARS2, 5 μM
  Percentage Inhibition Average 5 μM: 59.94%
[3]; SARS2, 5 μM, 100=DMSO control
  Screening data (Relative infection to DMSO controls) Average 5 μM: 40.06
[3]; SARS2, 10 μM
  Percentage Inhibition Average 10 μM: 86.21%
[3]; SARS2, 10 μM, 100=DMSO control
  Screening data (Relative infection to DMSO controls) Average 10 μM: 13.79
[3]; SARS2, 25 μM
  Percentage Inhibition Average 25 μM: 81.29%
[3]; SARS2, 25 μM, 100=DMSO control
  Screening data (Relative infection to DMSO controls) Average 25 μM: 18.71
[3]; SARS2, 50 μM
  Percentage Inhibition Average 50 μM: 90.83%
[3]; SARS2, 50 μM, 100=DMSO control
  Screening data (Relative infection to DMSO controls) Average 50 μM: 9.17
[3]; SARS2, average over 1 to 50 uM, 100=DMSO control
  Average (relative infection to DMSO over the 5 tested concentrations): 32.84
[4]
  direct binding to WDR61 by SPR: binding directly to WDR61

## COc1ccc(CNCCc2ccccc2C)c(OCC(O)CN2CCN(C)CC2)c1 (stereo not drawn) [UMB40]
[1]; A549 cells
  antiviral activity against IAV infection: showed a degree of antiviral activity

## O=C(NC1CCCCCC1)c1cn[nH]c1-c1ccc2c(c1)OCCO2 [UMB98]
[1]
  10 μM treatment, Average: 0
[1]; replicate 2
  10 μM treatment: 0
[1]; 50 μM compound
  50 μM treatment Average: 0
[1]; [5]
  50 μM treatment: 0
[1]; 50 μM compound, replicate 2
  50 μM treatment: 0

## CC1=C(C(=O)OC2CCCCCCC2)C(c2ccc3c(c2)OCO3)NC(=O)N1 (stereo not drawn) [UMB115]
[1]
  10 μM treatment, Average: 3500
[1]; replicate 2
  10 μM treatment: 5000
[1]; 50 μM compound
  50 μM treatment Average: 0
[1]; [5]
  50 μM treatment: 0
[1]; 50 μM compound, replicate 2
  50 μM treatment: 0

## COc1ccc(CNCCc2ccccc2F)c(OCC(O)CN2CCN(C)CC2)c1 (stereo not drawn) [UMBCADD-0018, 1-[2-({[2-(2-fluorophenyl)ethyl]amino}methyl)-5-methoxyphenoxy]-3-(4-methyl-1-piperazinyl)-2-propanol]
[1]; 10 μM, A549 cells
  inhibition of Influenza virus replication: over 20 fold
[1]; A549 cells
  antiviral activity against IAV infection: effective at 50 μM, 10 μM and 1 μM
